Key:
Assay type in all cases: cell-based, human
Conditions in all cases: 10 μM
HL-60(TB) = test: NCI-60 screen, Leukemia
Procedure: (§1) Several compounds were tested at single concentrations (10 μM) against 59 different human tumor cell lines, representing leukemia, melanoma and cancers of the lung, colon, brain, ovary, breast, prostate, and kidney (see, Table 3). The human tumor cell lines of the cancer screening panel were grown in RPMI 1640 medium containing 5% fetal bovine serum and 2 mM L-glutamine. For a typical screening experiment, cells were inoculated into 96 well microtiter plates in 100 μL at plating densities ranging from 5,000 to 40,000 cells/well depending on the doubling time of individual cell lines. After cell inoculation, the microtiter plates were incubated at 37° C., 5% CO2, 95% air and 100% relative humidity for 24 hours prior to addition of the compounds.
(§2) After 24 hours, two plates of each cell line were fixed in situ with TCA, to represent a measurement of the cell population for each cell line at the time of drug addition (Tz). Compounds were solubilized in dimethyl sulfoxide at 400-fold the desired final maximum test concentration and stored frozen prior to use. At the time of drug addition, an aliquot of frozen concentrate was thawed and diluted to twice the desired final maximum test concentration with complete medium containing 50 μg/ml gentamicin. Additional four, 10-fold or ½ log serial dilutions were made to provide a total of five compound concentrations plus control. Aliquots of 100 μl of these different drug dilutions were added to the appropriate microtiter wells already containing 100 μl of medium, resulting in the required final compound concentrations.
(§3) Following drug addition, the plates were incubated for an additional 48 hours at 37° C., 5% CO2, 95% air, and 100% relative humidity. For adherent cells, the assay was terminated by the addition of cold TCA. Cells were fixed in situ by the gentle addition of 50 μl of cold 50% (w/v) TCA (final concentration, 10% TCA) and incubated for 60 minutes at 4° C. The supernatant was discarded, and the plates were washed five times with tap water and air dried. Sulforhodamine B (SRB) solution (100 μl) at 0.4% (w/v) in 1% acetic acid was added to each well, and plates were incubated for 10 minutes at room temperature. After staining, unbound dye was removed by washing five times with 1% acetic acid and the plates were air dried. Bound stain was subsequently solubilized with 10 mM trizma base, and the absorbance was read on an automated plate reader at a wavelength of 515 nm. For suspension cells, the methodology was the same except that the assay was terminated by fixing settled cells at the bottom of the wells by gently adding 50 μl of 80% TCA (final concentration, 16% TCA). Using the seven absorbance measurements (time zero, (Tz), control growth, (C), and test growth in the presence of drug at the five concentration levels (Ti)), the percentage growth was calculated at each of the compound concentrations levels. Percentage growth inhibition was calculated as:
(§4) [(Ti−Tz)/(C−Tz)]×100 for concentrations for which Ti>/=Tz
(§5) [(Ti−Tz)/Tz]×100 for concentrations for which Ti<Tz.
(§6) Three dose response parameters were calculated for each compound. Growth inhibition of 50% (GI50) was calculated from [(Ti−Tz)/(C−Tz)]×100=50, which is the compound concentration resulting in a 50% reduction in the net protein increase (as measured by SRB staining) in control cells during the compound incubation. The compound concentration resulting in total growth inhibition (TGI) was calculated from Ti=Tz. The LC50 (concentration of compound resulting in a 50% reduction in the measured protein at the end of the compound treatment as compared to that at the beginning) indicating a net loss of cells following treatment was calculated from [(Ti−Tz)/Tz]×100=−50. Values were calculated for each of these three parameters if the level of activity was reached; however, if the effect was not reached or was exceeded, the value for that parameter was expressed as greater or less than the maximum or minimum concentration tested.

K-562 = test: NCI-60 screen, Leukemia
Procedure: as §1, §2, §3, §4, §5, §6

MOLT-4 = test: NCI-60 screen, Leukemia
Procedure: as §1, §2, §3, §4, §5, §6

SR = test: NCI-60 screen, Leukemia
Procedure: as §1, §2, §3, §4, §5, §6

A549/ATCC = test: NCI-60 screen, Non-Small Cell Lung Cancer
Procedure: as §1, §2, §3, §4, §5, §6

EKVX = test: NCI-60 screen, Non-Small Cell Lung Cancer
Procedure: as §1, §2, §3, §4, §5, §6

HOP-62 = test: NCI-60 screen, Non-Small Cell Lung Cancer
Procedure: as §1, §2, §3, §4, §5, §6

HOP-92 = test: NCI-60 screen, Non-Small Cell Lung Cancer
Procedure: as §1, §2, §3, §4, §5, §6

NCI-H226 = test: NCI-60 screen, Non-Small Cell Lung Cancer
Procedure: as §1, §2, §3, §4, §5, §6

NCI-H23 = test: NCI-60 screen, Non-Small Cell Lung Cancer
Procedure: as §1, §2, §3, §4, §5, §6

NCI-H322M = test: NCI-60 screen, Non-Small Cell Lung Cancer
Procedure: as §1, §2, §3, §4, §5, §6

NCI-H460 = test: NCI-60 screen, Non-Small Cell Lung Cancer
Procedure: as §1, §2, §3, §4, §5, §6

NCI-H522 = test: NCI-60 screen, Non-Small Cell Lung Cancer
Procedure: as §1, §2, §3, §4, §5, §6

COLO 205 = test: NCI-60 screen, Colon Cancer
Procedure: as §1, §2, §3, §4, §5, §6

HCC-2998 = test: NCI-60 screen, Colon Cancer
Procedure: as §1, §2, §3, §4, §5, §6

HCT-116 = test: NCI-60 screen, Colon Cancer
Procedure: as §1, §2, §3, §4, §5, §6

HCT-15 = test: NCI-60 screen, Colon Cancer
Procedure: as §1, §2, §3, §4, §5, §6

HT29 = test: NCI-60 screen, Colon Cancer
Procedure: as §1, §2, §3, §4, §5, §6

KM12 = test: NCI-60 screen, Colon Cancer
Procedure: as §1, §2, §3, §4, §5, §6

SW-620 = test: NCI-60 screen, Colon Cancer
Procedure: as §1, §2, §3, §4, §5, §6

IGROV1 = test: NCI-60 screen, Ovarian Cancer
Procedure: as §1, §2, §3, §4, §5, §6

NCI/ADR-RES = test: NCI-60 screen, Ovarian Cancer
Procedure: as §1, §2, §3, §4, §5, §6

OVCAR-3 = test: NCI-60 screen, Ovarian Cancer
Procedure: as §1, §2, §3, §4, §5, §6

OVCAR-4 = test: NCI-60 screen, Ovarian Cancer
Procedure: as §1, §2, §3, §4, §5, §6

OVCAR-5 = test: NCI-60 screen, Ovarian Cancer
Procedure: as §1, §2, §3, §4, §5, §6

OVCAR-8 = test: NCI-60 screen, Ovarian Cancer
Procedure: as §1, §2, §3, §4, §5, §6

SK-OV-3 = test: NCI-60 screen, Ovarian Cancer
Procedure: as §1, §2, §3, §4, §5, §6

| SMILES | Percent Growth (HL-60(TB)) [%] | Percent Growth (K-562) [%] | Percent Growth (MOLT-4) [%] | Percent Growth (SR) [%] | Percent Growth (EKVX) [%] | Percent Growth (HOP-62) [%] | Percent Growth (HOP-92) [%] | Percent Growth (NCI-H226) [%] | Percent Growth (NCI-H23) [%] | Percent Growth (NCI-H322M) [%] | Percent Growth (NCI-H460) [%] | Percent Growth (NCI-H522) [%] | Percent Growth (COLO 205) [%] | Percent Growth (HCC-2998) [%] | Percent Growth (HCT-116) [%] | Percent Growth (HCT-15) [%] | Percent Growth (HT29) [%] | Percent Growth (KM12) [%] | Percent Growth (SW-620) [%] | Percent Growth (IGROV1) [%] | other results |
| --- | --- | --- | --- | --- | --- | --- | --- | --- | --- | --- | --- | --- | --- | --- | --- | --- | --- | --- | --- | --- | --- |
| NCCc1cc(Br)cc(C#Cc2cccc(C#Cc3cc(Br)cc(CCN)c3)c2)c1 [Compound A] | 6.88 | −45.67 | −43.65 | −43.87 | 62.48 | 21.99 | 73.03 | 108.9 | 94.81 | 53 | −49.11 | −78.21 | 1.203 | 54.09 | −45.86 | 11.61 | −89.31 | −87.53 | −73.58 | −4.832 | Percent Growth (A549/ATCC): −15.97%; Percent Growth (NCI/ADR-RES): 23.97%; Percent Growth (OVCAR-3): −35.66%; Percent Growth (OVCAR-4): −28.5%; Percent Growth (OVCAR-5): 60.77%; Percent Growth (OVCAR-8): −14.54%; Percent Growth (SK-OV-3): 94.37% |
| N=C(N)NCCCCC(=O)Nc1cc(C(F)(F)F)cc(NC(=O)Nc2ccc(NC(=O)Nc3cc(C(F)(F)F)cc(NC(=O)CCCCNC(=N)N)c3OC3CCNC3)cc2)c1OC1CCNC1 (centres unmarked) [Compound B] | 58.59 | 38.56 | 63.33 | 77.31 | 61.92 | 23.47 | 81.51 | 51.21 | 77.57 | 80.76 | 50.72 | −11.87 | 55.41 | 75.82 | 45.1 | 61.39 | 59.66 | 24.16 | 69.71 | 82.4 | Percent Growth (A549/ATCC): 49.78%; Percent Growth (NCI/ADR-RES): 87.71%; Percent Growth (OVCAR-3): 45.06%; Percent Growth (OVCAR-4): 23.18%; Percent Growth (OVCAR-5): 77.33%; Percent Growth (OVCAR-8): 66.59%; Percent Growth (SK-OV-3): 59.3% |
| N=C(N)NCCCCC(=O)Nc1cc(C(F)(F)F)cc(NC(=O)c2cc(C(=O)Nc3cc(C(F)(F)F)cc(NC(=O)CCCCNC(=N)N)c3SCCN)ncn2)c1SCCN [Compound C] | 30.11 | 4.995 | 45.62 | 28.12 | 59.82 | 37.78 | 93.99 | 63.82 | 80.24 | 83.13 | 28.72 | −26.87 | −73.2 | 54.2 | 37.88 | 33.27 | 17.03 | −39.48 | 34.39 | 51.71 | Percent Growth (A549/ATCC): 37.26%; Percent Growth (NCI/ADR-RES): 55.27%; Percent Growth (OVCAR-3): 37.56%; Percent Growth (OVCAR-4): 38.79%; Percent Growth (OVCAR-5): 75.78%; Percent Growth (OVCAR-8): 39.11%; Percent Growth (SK-OV-3): 82.66% |
| NCCCc1cccc(-c2ccc3oc4ccc(-c5cccc(CCCN)c5)cc4c3c2)c1 [Compound G] | 46.37 | 2.899 | −6.401 | −19.6 | 81.69 | 72.69 | 61.6 | 104.4 | 99.38 | 108.3 | 23.91 | 69.45 | 26.37 | 81.22 | −37.99 | 49.71 | −51.14 | 14.01 | −7.997 | 42.2 | Percent Growth (NCI/ADR-RES): 83.66%; Percent Growth (OVCAR-3): 18.54%; Percent Growth (OVCAR-4): 54.91%; Percent Growth (OVCAR-5): 64.48%; Percent Growth (OVCAR-8): 33.74%; Percent Growth (SK-OV-3): 94.45% |

Source: patent US20120115877A1, “Facially Amphiphilic Compounds, Compositions, And Uses Thereof In Treating Cancer” (POLYMEDIX, INC., priority 2010, published 2012)
